According to ChEMBL document CHEMBL1201862, “PubChem BioAssay data set” (2004):
Active and inactive are the calls of the source.

Legend:
Protein Tat = Protein Tat (Human immunodeficiency virus type 1 group M subtype B (isolate HXB2)(HIV-1), UniProt P04608); assay type: functional;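 further: tat binding to TAR RNA read out by fluorescence polarization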
Paired box protein Pax-8 = Paired box protein Pax-8 (Homo sapiens, UniProt Q06710); experiment: inhibitors of PAX8-driven TPO luciferase reporter, dose response, RMG-I cells, cherry-pick (AID 687027); assay type: functional, cell-based;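 further: luciferase reporter driven by Pax8 target thyroperoxidase promoter measured by SteadyGlo luminescence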
[1] = HEK293T cytotoxicity, dose response, cytotoxicity control for miR-122 modulator project, cell-based, activator set, cherry-pick (AID 720690); assay type: functional;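 further: HEK293T human cells scored for general mammalian cytotoxicity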
[2] = NIH:OVCAR-3 ovarian cancer cell cytotoxicity, dose response, PAX8 inhibitor project, plate reader, dry powder samples (AID 743044); assay type: functional, cell-based
[3] = miR-122 activators in hepatoma reporter cells, dose response, cell-based, Huh7 psiCHECK-miR122, Renilla luciferase, cherry-picked (AID 651956); assay type: functional;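 further: huh7 hepatoma cells stably carrying a psiCHECK-2 miR-122 sensor plasmid; renilla luciferase signal reporting endogenous miR-122 activity after 48 h compound exposure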
[4] = HEK293T cytotoxicity, dose response, cytotoxicity control for miR-122 modulator project, cell-based, inhibitor set, cherry-pick, set 2 (AID 720697); assay type: functional
fMet-Leu-Phe receptor = fMet-Leu-Phe receptor (Homo sapiens, UniProt P21462); experiment: FPR ligands, dose response (AID 519); assay type: functional
Major prion protein = Major prion protein (Homo sapiens, UniProt P04156); assay type: functional, cell-based
[5] = biological target: Disintegrin and metalloproteinase domain-containing protein 17 (Homo sapiens, UniProt P78536); experiment: ADAM17 protease inhibitors, dose response, counter-screen for ADAM10 exosite inhibitor project, biochemical, quenched FRET substrate (AID 743253)
Streptokinase A = biological target: T1, Streptokinase A (Streptococcus pyogenes serotype M1, UniProt P10520); experiment: S. pyogenes streptokinase expression inhibitors, potency, dose response, plasminogen activation absorbance, OD405 (AID 1914); assay type: functional, Streptococcus pyogenes M1 GAS;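 further: secreted streptokinase activity via plasminogen activation per viability signal from cell pellet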
T1 sequence (P10520 whole entry): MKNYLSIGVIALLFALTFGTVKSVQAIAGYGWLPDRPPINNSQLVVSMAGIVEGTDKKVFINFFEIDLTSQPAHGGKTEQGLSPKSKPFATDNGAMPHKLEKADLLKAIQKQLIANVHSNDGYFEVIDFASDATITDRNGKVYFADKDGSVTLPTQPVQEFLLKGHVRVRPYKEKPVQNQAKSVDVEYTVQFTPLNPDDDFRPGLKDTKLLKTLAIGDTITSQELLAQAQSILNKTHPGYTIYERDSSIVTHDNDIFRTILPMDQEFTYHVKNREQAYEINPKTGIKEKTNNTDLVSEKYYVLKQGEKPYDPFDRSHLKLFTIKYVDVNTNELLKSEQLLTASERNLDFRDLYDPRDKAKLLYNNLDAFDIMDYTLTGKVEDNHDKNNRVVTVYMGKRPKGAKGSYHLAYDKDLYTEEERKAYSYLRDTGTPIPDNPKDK

[6] = ADAM10 inhibitors, peptide cleavage, dose response, biochemical, QFRET (AID 743254);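 further: ADAM10 enzyme with the DM2 quenched FRET peptide as substrate; EDANS fluorescence gain as the protease cuts the substrate; inhibitor potency against ADAM10 proteolytic activity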
Fatty acid synthase [7] = biological target: T2, Fatty acid synthase (Homo sapiens, UniProt P49327); experiment: FAS thioesterase domain inhibitors, dose response, biochemical, kinetic fluorescence intensity (AID 624326); assay type: functional;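 further: rate of fluorescence rise from hydrolysis of a fluorogenic O-methyl fluorescein ester substrate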
Fatty acid synthase [8] = biological target: T2, Fatty acid synthase; experiment: FAS thioesterase domain inhibitors, dose response, biochemical, endpoint fluorescence intensity, uHTS hits (AID 624327); assay type: functional;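 further: fluorescence from hydrolysis of an O-methyl fluorescein acyl ester substrate by the enzyme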
Streptococcus = experiment: Group A Streptococcus viability loss, dose response, counter-screen for streptokinase expression inhibitor project, luminescence, BacTiterGlo (AID 1915); assay type: functional, organism-based;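 further: potency for reduction of bacterial viability or growth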
[9] = tested on: Streptococcus sp. 'group A'; experiment: growth inhibition of control SK(-) GAS strain, dose response, counter-screen for streptokinase expression inhibitor project, luminescence, kanamycin, BacTiterGlo, confirmation (AID 1900); assay type: functional, organism-based
[10] = HepG2 cell cytotoxicity, dose response, cytotoxicity control, cherry-picked samples (AID 1159577); assay type: functional, cell-based
[11] = P. falciparum Dd2 growth inhibitors, dose response, SYBR Green, cherry-picked samples (AID 1159567); assay type: functional, cell-based
[12] = P. falciparum Dd2 growth inhibitors, dose response, SYBR Green, dry powder samples (AID 1159566); assay type: functional, cell-based;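 further: potency for growth inhibition with lower SYBR green DNA signal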
[13] = P. falciparum 3D7-ScDHODH growth inhibitors, dose response, SYBR Green, dry powder samples (AID 1159570); assay type: functional, cell-based;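 further: parasite growth measured after 72 hours of compound exposure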
[14] = P. falciparum ATP4 D1247Y mutant growth inhibitors, dose response, NITD609-resistant line, SYBR Green, dry powder (AID 1159571); assay type: functional, cell-based;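 further: parasites synchronized at ring stage by sorbitol before testing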
[15] = HepG2 cell cytotoxicity, dose response, cytotoxicity control, plate reader, dry powder samples (AID 1159569); assay type: functional, cell-based;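 further: inhibitor potency with signal falling toward the positive control level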

With `CC(=O)Oc1cccc(N2C(=O)CC(Nc3ccc(N4CCOCC4)cc3)C2=O)c1` (configuration not stated) as the compound, how does the IC50 (Protein Tat) read?
The IC50 was 10.5 µM (inconclusive).

For `COc1ccc(CN(C)C[C@@H]2OCCCC[C@H](C)Oc3ccc(NC(=O)Nc4ccc(C(F)(F)F)cc4)cc3C(=O)N([C@H](C)CO)C[C@@H]2C)cc1`, which AC50 (Paired box protein Pax-8) is on record?
Its AC50 is 20.1 µM (active).

And the AC50 [1]?
Its AC50 is 14.5 µM (active).

And the AC50 [2]?
Its AC50 is 44.6 µM (active).

And the AC50 [3]?
The AC50 was 17.5 µM (active).

And the AC50 [4]?
Its AC50 is 12 µM (active).

For `O=C(NCC1CCCO1)c1ccc(NC(=O)C2CCCCC2C(=O)O)cc1` (configuration not stated), which Ki (fMet-Leu-Phe receptor) is on record?
Its Ki is > 66.7 µM (inactive).

For `CCOC(=O)N1CCN(C(=O)COc2ccc3ccccc3c2Br)CC1`, which IC50 (Major prion protein) is on record?
Its IC50 is 6.28 µM (active).

And the IC50 (cells)?
Its IC50 is > 138 µM (inactive).

For `O=C(C1=C(O)C(=O)N(Cc2ccccc2)C1c1ccncc1)c1ccco1` (configuration not stated), which Ki (fMet-Leu-Phe receptor) is on record?
Its Ki is 13.6 µM (active).

For `Cc1ccc(NC(=O)c2[nH]cnc2C(=O)N[C@@H](CCCCNC(=O)OC(C)(C)C)C(=O)OC(C)(C)C)cc1`, which IC50 [5] is on record?
The IC50 was > 69.5 µM (inactive).

What about the EC50 (Streptokinase A) of the same compound?
The EC50 was > 150 µM (not active).

What about the IC50 [6] of the same compound?
The IC50 was > 7.72 µM (active).

What about the IC50 (Fatty acid synthase [7]) of the same compound?
Its IC50 is 1.09 µM (active).

And the IC50 (Fatty acid synthase [8])?
The IC50 was 2.47 µM (active).

And the EC50 (Streptococcus)?
The EC50 was 7.99 µM (active).

And the EC50 [9]?
The EC50 was 5.58 µM (active).

With `NC(=O)[C@@H]1CC2(CC(c3cccc(NC(=O)CC(c4ccccc4)c4ccccc4)c3)=NO2)CN1C(=O)COc1ccc(Cl)cc1` (some centres not stated) as the compound, how does the IC50 [5] read?
The IC50 was > 69.5 µM (inactive).

What about the IC50 [6] of the same compound?
The IC50 was > 69.5 µM (inactive).

What does the source list for `OC[C@H]1[C@@H](c2ccc(-c3cccc(F)c3)cc2)[C@@H]2CN(CCC(F)(F)F)CCCCN12`?
AC50 [10]: 28.5 µM (active); AC50 [11]: 1.84 µM (active); AC50 [12]: 0.618 µM (active); AC50 [13]: 1.12 µM (active); AC50 [14]: 0.832 µM (active); AC50 [15]: 12.8 µM (active)

Which results are given for `C[C@@H]1CN([C@@H](C)CO)C(=O)Cc2cc(NC(=O)Nc3ccc(F)cc3)ccc2O[C@H]1CN(C)Cc1ccc(Oc2ccccc2)cc1`?
AC50 [10]: 15.1 µM (active); AC50 [11]: 1.5 µM (active)
